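Five compound concentrations were applied to cells in 96-well plates for 48 hours; endpoints were derived by simple linear interpolation of the resulting dose-response curve. Abbreviation: GI50, concentration required for 50% inhibition of growth. At the TGI there is no net growth.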 Where a SMILES comes first, the peptide text is derived from it.
How the values were obtained:
Assay in all cases: inhibition of tumour cell growth, NCI panel, 48 h
CAKI-1 renal = test system: CAKI-1 renal
K-562 leukemia = test system: K-562 leukemia
KM12 colon = test system: KM12 colon
MDA-MB-231 breast = test system: MDA-MB-231 breast
MOLT-4 leukemia = test system: MOLT-4 leukemia
NCI/ADR-RES ovarian = test system: NCI/ADR-RES ovarian
OVCAR-5 ovarian = test system: OVCAR-5 ovarian
SF-268 CNS = test system: SF-268 CNS
TK-10 renal = test system: TK-10 renal
MDA-N = test system: MDA-N

SMILES	TGI (CAKI-1 renal) [µM]	TGI (K-562 leukemia) [µM]	TGI (KM12 colon) [µM]	TGI (MDA-MB-231 breast) [µM]	TGI (MOLT-4 leukemia) [µM]	TGI (NCI/ADR-RES ovarian) [µM]	TGI (OVCAR-5 ovarian) [µM]	TGI (SF-268 CNS) [µM]	TGI (TK-10 renal) [µM]	TGI (MDA-N) [µM]	GI50 (CAKI-1 renal) [µM]	GI50 (NCI/ADR-RES ovarian) [µM]	GI50 (TK-10 renal) [µM]
Cc1cc2c(cc1Cl)SC(c1ccccc1O)NS2(=O)=O (stereo not given)	> 100	> 100	> 100	> 100	> 100	> 100	> 100	> 100	> 100				
COC(=O)[C@]12CSC[C@H]1C[C@H](c1cccc3ccccc13)N2	> 100	> 100	> 100	> 100	61.4	> 100	> 100			> 100			
O=C1CC2CC(CC3(CO3)C2)C1F (stereo not given)	> 100	> 100	> 100	> 100	> 100	> 100	> 100	> 100	> 100	> 100			
O=C(CSSCC(=O)OCCS(=O)(=O)Nc1ccc(Br)cc1)OCCS(=O)(=O)Nc1ccc(Br)cc1	68.4	> 100	30		15.4		84.7	63.2	87.8				
O=c1c(-c2ccccc2)c(SCCN2CCOCC2)n(-c2ccccc2)c(=S)n1-c1ccccc1	> 100	> 100	> 100	> 100	> 100	> 100	> 100		> 100				
COc1cc(/C=C2\N=C(c3ccccc3)N(c3nc4ccc(Sc5ccccc5)cc4[nH]3)C2=O)cc(OC)c1OC	> 100	48.1	58.8	50.3	78.5	74.6	> 100	> 100	57.4	24.7			
Cc1cc(=O)n2c3c(c4c(cc13)c(CN(C)C)cc(=O)n4C)OC2	97	> 100	67.7	98.7	> 100	> 76.9	> 77	55.7	> 88.6	> 87.7			
Cn1c2cn[nH]c(=O)c2c2ccc3ccccc3c21	> 100	> 100	> 100	57.6	> 100	> 100	> 100	97.2	> 100	> 100			
COc1ccc2c(c1)CCCc1c-2nc2ccccc2c1N	26.8	58.5	30.9	19	66.5	33.6	23.9	29.2	23.2	21.9			
O=C(NC(Cc1ccc(Cl)cc1)C(=O)O)c1ccc(I)cc1 (stereo not given)	> 100	> 100	> 100		> 100	> 100	> 100	> 100					
COc1ccc(N=Nc2c(N)nn(C)c2N)cc1	> 100	> 100	> 100		> 100		> 100	> 100	> 100				
CCCCCCCCCCCCSC(=S)c1c(C)[nH]n(CCCCCCCCCCCC)c1=O	> 100	> 100	> 100		> 100		> 100	> 100					
O=C1CS(=O)(=O)C(c2cccc(Oc3ccccc3)c2)N1C1CC1 (stereo not given)		> 100	> 100	> 100	> 100	> 100	> 100	> 100	> 100	80.1			
CN1NC(c2ccccc2)=C(C#N)C(=O)CC1c1ccc(F)cc1 (stereo not given)	> 100		> 100		> 100		> 100	> 100	> 100				
CCC(C)C(NC(=O)C(CC(C)C)NC(=O)CNC(=O)C(NC(=O)C1CCCN1C(=O)C(CC(C)C)NC(=O)C(N)Cc1ccccc1)C(C)CC)C(=O)NC(CC(C)C)C(N)=O (stereo not given) (H-FLPIGLIL-NH2; configuration not given here)	> 75	> 75	> 75	> 75	> 75	> 75	> 75	> 75	> 75	> 75			
Cc1ccc(C(=O)N/N=C(\N=Nc2ccccc2Cl)c2ccc(N(C)C)cc2)cc1	75.4	> 100	> 100	> 100	> 100	> 100	> 100	> 100	> 100	34.5			
CC(C)(C)c1cc(-c2nc3ccc(N4CCN(CCO)CC4)cc3[nH]2)cc(C(C)(C)C)c1O	4.45					> 100			> 100		1.97	> 100	4.69
CCCCCCCCCCCCCCCCCC(=O)OCC1OC(OC)C(NC(=O)N(CCCl)N=O)C(O)C1O (stereo not given)	> 100	> 100	67.9		57.3		> 100	26.7	> 100				
CCC12C=CCN3CCC4(c5cc(C(c6ccc(OC)cc6)C6Cc7ccccc7N6)c(OC)cc5N(C)C4C(O)(C(=O)OC)C1O)C32 (stereo not given)	> 100	41.7	36.5	59.2	18.2	> 100	> 100	> 100	66.3	> 100			
CCN(CCO)CCNc1ccc(C)c2sc3ccccc3c(=O)c12	12.6	11.9	11.2	5.32	18.8	11.7	12.5	20.9	21.4	3.16			
Cc1ccc2c3c1[C@@H]1O[C@@H]1c1cccc(c1-3)[C@@H]1O[C@H]21	32.9	37.5	28.8	36.2	12.8	90	34	34.1	38.5	30.5			

From PubChem BioAssay (NCI)
